# Patent US10668064B2, “Polycyclic-carbamoylpyridone compounds and their pharmaceutical use” (Gilead Sciences, Inc., priority 2013, dated 2020)
# Experiments:
# in vitro = type: cell-based; settings: human
# Procedure: (§1) For the antiviral assay utilizing MT4 cells, 0.4 μL of 189× test concentration of 3-fold serially diluted compound in DMSO was added to 40 μL of cell growth medium (RPMI 1640, 10% FBS, 1% penicillin/streptomycin, 1% L-Glutamine, 1% HEPES) in each well of 384-well assay plates (10 concentrations) in quadruplicate. 1 mL aliquots of 2×10^6 MT4 cells are pre-infected for 1 and 3 hours respectively at 37° C. with 25 μL (MT4) or of either cell growth medium (mock-infected) or a fresh 1:250 dilution of an HIV-IIIb concentrated ABI stock (0.004 m.o.i. for MT4 cells). Infected and uninfected cells are diluted in cell growth medium and 35 μL of 2000 (for MT4) cells is added to each well of the assay plates. Assay plates were then incubated in a 37° C. incubator. After 5 days of incubation, 25 μL of 2× concentrated CellTiter-Glo™ Reagent (catalog # G7573, Promega Biosciences, Inc., Madison, Wis.) was added to each well of the assay plate. Cell lysis was carried out by incubating at room temperature for 2-3 minutes, and then chemiluminescence was read using the Envision reader (PerkinElmer).
# HIV-IIIb = experiment: Antiviral assay in MT4 cells; type: cell-based; settings: Human immunodeficiency virus 1, 120 h; MT4 cells infected with HIV-IIIb, 5 days incubation, CellTiter-Glo; average over time; read-out: EC50 nM in MT-4
# Procedure: as §1
Compound,CC50 at 5 days (in vitro),EC50 (HIV-IIIb)
"C[C@@H](NC(=O)c1cn2c(c(O)c1=O)C(=O)N1[C@@H]3C[C@H](O[C@@H]1C2)[C@H]1C[C@H]13)c1ccc(F)cc1F [Compound 3, (1aS,2S,3aR,12R,12aR)-N-((R)-1-(2,4-difluorophenyl)ethyl)-9-hydroxy-8,10-dioxo-1a,2,3a,4,8,10,12,12a-octahydro-1H-2,12-methanocyclopropa[e]pyrido[1′,2′:4,5]pyrazino[2,1-b][1,3]oxazepine-7-carboxamide]",4.1 µM,9.9 nM
"O=C(NCc1c(F)cc(F)cc1F)c1cn2c(c(O)c1=O)C(=O)N1[C@@H]3C[C@@H]([C@H]4C[C@H]43)[C@@H]1C2 [Compound 12, (1aR,2R,10aR,11S,11aS)-5-hydroxy-4,6-dioxo-N-(2,4,6-trifluorobenzyl)-1a,2,4,6,10,10a,11,11a-octahydro-1H-2,11-methanocyclopropa[4,5]pyrido[1,2-a]pyrido[1,2-d]pyrazine-7-carboxamide]",22.8 µM,2.9 nM
"O=C(N[C@@H](c1ccc(F)cc1F)C(F)(F)F)c1cn2c(c(O)c1=O)C(=O)N1[C@H](C2)O[C@@H]2C[C@H]1[C@H]1C[C@H]12 [Compound 2, (1aR,2R,3aS,12S,12aS)-N-((S)-1-(2,4-difluorophenyl)-2,2,2-trifluoroethyl)-9-hydroxy-8,10-dioxo-1a,2,3a,4,8,10,12,12a-octahydro-1H-2,12-methanocyclopropa[e]pyrido[1′,2′:4,5]pyrazino[2,1-b][1,3]oxazepine-7-carboxamide]",7.8 µM,10.7 nM
"O=C(NCc1ccc(F)cc1F)c1cn2c(c(O)c1=O)C(=O)N1C(C2)O[C@@H]2C[C@H]1[C@H]1C[C@H]12 (stereo partly drawn) [Compound 6, (1aR,2R,3aS,12S,12a5)-N-(2,4-difluorobenzyl)-9-hydroxy-8,10-dioxo-1a,2,3a,4,8,10,12,12a-octahydro-1H-2,12-methanocyclopropa[e]pyrido[1′,2′:4,5]pyrazino[2,1-b][1,3]oxazepine-7-carboxamide]",14.1 µM,1.5 nM
"O=C(NCc1ccc(F)cc1F)c1cn2c(c(O)c1=O)C(=O)N1[C@@H]3C[C@H](O[C@@H]1C2)[C@H]1C[C@H]13 [Compound 7, (1aS,2S,3aR,12R,12aR)-N-(2,4-difluorobenzyl)-9-hydroxy-8,10-dioxo-1a,2,3a,4,8,10,12,12a-octahydro-1H-2,12-methanocyclopropa[e]pyrido[1′,2′:4,5]pyrazino[2,1-b][1,3]oxazepine-7-carboxamide]",4.83 µM,2.7 nM
"O=C(NCc1ccc(F)cc1F)c1cn2c(c(O)c1=O)C(=O)N1C(C2)O[C@@H]2C[C@H]1[C@@H]1[C@H]2C1(F)F (stereo partly drawn) [Compound 5, (1aR,2R,12S,12a5)-N-(2,4-difluorobenzyl)-1,1-difluoro-9-hydroxy-8,10-dioxo-1a,2,3a,4,8,10,12,12a-octahydro-1H-2,12-methanocyclopropa[e]pyrido[1′,2′:4,5]pyrazino[2,1-b][1,3]oxazepine-7-carboxamide]",50.5 µM,1.6 nM
"O=C(NCc1c(F)cc(F)cc1F)c1cn2c(c(O)c1=O)C(=O)N1[C@H](C2)[C@@H]2C[C@H]1[C@H]1C[C@@H]21 [Compound 9, (1aS,2S,10aS,11R,11aR)-5-hydroxy-4,6-dioxo-N-(2,4,6-trifluorobenzyl)-1a,2,4,6,10,10a,11,11a-octahydro-1H-2,11-methanocyclopropa[4,5]pyrido[1,2-a]pyrido[1,2-d]pyrazine-7-carboxamide]",10.7 µM,1.4 nM
"O=C(NCc1ccc(F)cc1F)c1cn2c(c(O)c1=O)C(=O)N1[C@H](C2)[C@@H]2C[C@H]1[C@H]1C[C@@H]21 [Compound 8, (1aS,2S,10aS,11R,11aR)-N-(2,4-difluorobenzyl)-5-hydroxy-4,6-dioxo-1a,2,4,6,10,10a,11,11a-octahydro-1H-2,11-methanocyclopropa[4,5]pyrido[1,2-a]pyrido[1,2-d]pyrazine-7-carboxamide]",8.84 µM,1.4 nM
"O=C(N[C@@H](c1ccc(F)cc1F)C(F)(F)F)c1cn2c(c(O)c1=O)C(=O)N1[C@@H]3C[C@H](O[C@@H]1C2)[C@H]1C[C@H]13 [Compound 1, (1aS,2S,3aR,12R,12aR)-N-((S)-1-(2,4-difluorophenyl)-2,2,2-trifluoroethyl)-9-hydroxy-8,10-dioxo-1a,2,3a,4,8,10,12,12a-octahydro-1H-2,12-methanocyclopropa[e]pyrido[1′,2′:4,5]pyrazino[2,1-b][1,3]oxazepine-7-carboxamide]",14.1 µM,9.6 nM
"O=C(NCc1c(F)cc(F)cc1F)c1cn2c(c(O)c1=O)C(=O)N1C(C2)O[C@@H]2C[C@H]1[C@H]1C[C@H]12 (stereo partly drawn) [Compound 11, (1aR,2R,10aR,11S,11a5)-5-hydroxy-4,6-dioxo-N-(2,4,6-trifluorobenzyl)-1a,2,4,6,10,10a,11,11a-octahydro-1H-2,11-methanocyclopropa[4,5]pyrido[1,2-a]pyrido[1,2-d]pyrazine-7-carboxamide]",11 µM,1.5 nM
C[C@@H](NC(=O)c1cn2c(c(O)c1=O)C(=O)N1C3CC(O[C@H]1C2)[C@@H]1C[C@H]31)c1ccc(F)cc1F (some centres unmarked) [Compound 4],12.8 µM,8.4 nM
"O=C(NCc1cc(F)c(F)cc1F)c1cn2c(c(O)c1=O)C(=O)N1C3CC([C@@H]4C[C@H]34)[C@@H]1C2 (stereo partly drawn) [Compound 13, (1aR,2R,10aR,11S,11a5)-5-hydroxy-4,6-dioxo-N-(2,4,5-trifluorobenzyl)-1a,2,4,6,10,10a,11,11a-octahydro-1H-2,11-methanocyclopropa[4,5]pyrido[1,2-a]pyrido[1,2-d]pyrazine-7-carboxamide]",7.05 µM,2.3 nM
"O=C(NCc1c(F)cc(F)cc1F)c1cn2c(c(O)c1=O)C(=O)N1[C@@H]3C[C@H](O[C@@H]1C2)[C@H]1C[C@H]13 [Compound 10, (1aS,2S,3aR,12R,12aR)-9-hydroxy-8,10-dioxo-N-(2,4,6-trifluorobenzyl)-1a,2,3a,4,8,10,12,12a-octahydro-1H-2,12-methanocyclopropa[e]pyrido[1′,2′:4,5]pyrazino[2,1-b][1,3]oxazepine-7-carboxamide]",7.59 µM,1.7 nM
